Measured values taken from ChEMBL document CHEMBL1143698, “Conformation selectivity in the binding of diazepam and analogues to alpha1-acid glycoprotein” (Bioorg Med Chem, 2007).

Legend:
Homo sapiens [1] = species on record: Homo sapiens; assay: Binding affinity to human alpha1-acid glycoprotein A variant at 30 uM
Homo sapiens [2] = species on record: Homo sapiens; assay: Binding affinity to human alpha1-acid glycoprotein F1-S variant at 30 uM
Albumin = Albumin (Homo sapiens, UniProt P02768); assay: Binding affinity to 30 uM human serum albumin at 30 uM
Albumin, sequence (P02768 whole entry): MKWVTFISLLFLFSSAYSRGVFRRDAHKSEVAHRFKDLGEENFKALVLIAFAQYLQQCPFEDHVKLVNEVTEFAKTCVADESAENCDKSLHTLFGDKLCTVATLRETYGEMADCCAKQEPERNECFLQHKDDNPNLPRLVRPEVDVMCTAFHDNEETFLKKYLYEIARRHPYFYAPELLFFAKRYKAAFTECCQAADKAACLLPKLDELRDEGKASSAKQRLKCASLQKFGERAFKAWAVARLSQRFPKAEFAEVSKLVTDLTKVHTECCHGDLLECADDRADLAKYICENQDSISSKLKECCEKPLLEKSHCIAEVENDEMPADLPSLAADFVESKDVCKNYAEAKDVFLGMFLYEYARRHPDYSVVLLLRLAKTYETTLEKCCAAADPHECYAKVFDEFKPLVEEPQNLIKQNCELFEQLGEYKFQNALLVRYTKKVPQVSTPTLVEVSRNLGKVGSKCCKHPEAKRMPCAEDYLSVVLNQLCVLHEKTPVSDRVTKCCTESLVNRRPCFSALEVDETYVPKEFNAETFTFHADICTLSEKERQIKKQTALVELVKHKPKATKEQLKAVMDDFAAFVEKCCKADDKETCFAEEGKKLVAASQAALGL

[3] = molecular target: Alpha-1-acid glycoprotein 1 (Homo sapiens, UniProt P02763); assay: Binding affinity to human alpha1-acid glycoprotein at 30 uM
Alpha-1-acid glycoprotein 1, sequence (P02763 whole entry): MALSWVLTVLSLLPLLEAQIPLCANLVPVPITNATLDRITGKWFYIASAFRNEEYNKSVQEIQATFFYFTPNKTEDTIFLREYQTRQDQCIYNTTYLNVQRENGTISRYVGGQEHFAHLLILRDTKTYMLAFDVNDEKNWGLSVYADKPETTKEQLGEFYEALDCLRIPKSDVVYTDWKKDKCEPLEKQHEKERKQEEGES

Homo sapiens [4] = species on record: Homo sapiens; assay: Binding affinity to human alpha1-acid glycoprotein F1-S variant at 60 uM
Homo sapiens [5] = species on record: Homo sapiens; assay: Binding affinity to human alpha1-acid glycoprotein A variant at 60 uM

Structure (SMILES) | Activity (Homo sapiens [1]) [µM] | Activity (Homo sapiens [2]) [µM] | Activity (Albumin) [µM] | Activity [3] [µM] | Activity (Homo sapiens [4]) [µM] | Activity (Homo sapiens [5]) [µM]
CC1(C)N=C(c2ccccc2)c2cc(Cl)ccc2NC1=O | 12 | 9 | 13 | 13 |  | 
CN1C(=O)C(C)(C)N=C(c2ccccc2)c2cc(Cl)ccc21 |  |  | 17 | 14 |  | 
CN1C(=O)CN=C(c2ccccc2)c2cc(Cl)ccc21 [DIAZEPAM] | 12 | 9 |  | 10 | 12 | 17
O=C1CN=C(c2ccccc2)c2cc(Cl)ccc2N1 [NORDAZEPAM] |  |  | 17 | 9 |  | 
